Assay type in all cases: cell-based
For assay [1], the system named is H9-HIV cells. Description: Apoptosis in H9-HIV cells: annexin V binding, cell diameter, cell survival. The conditions noted are these: CPX 30 μM, DEF 200 μM; for increase in annexin-V binding, 7-AAD-negative cell population: by 24 hr. As for the experimental part: Uninfected and uniformly HIV-1 (HTLV-IIIB) infected H9 cells, obtained from the NIH AIDS Research and References Reagent Program, were cultured at 37° C. in a humidified atmosphere (5% CO2, 95% humidity) using RPMI 1640 medium supplemented with 2 mM L-glutamine, […], […] and 20% fetal calf serum.
Viability, diameter, and cell number of PBMCs and H9 cells were measured by computerized image analysis of trypan blue exclusion (VI-CELL™; Beckman Coulter; Fullerton, Calif.). PBMCs were counted with an automated, multi-parameter hematology analyzer (CELL-DYN™; Abbott Laboratories, Abbott Park, Ill.).
The potential across the mitochondrial membrane of live cells was determined flow-cytometrically with the lipophilic cationic fluorochrome JC-1 (5,5′,6,6′-tetrachloro-1,1′,3,3′-tetraethylbenzimidazolcarbocyanine iodide) immediately after sample harvest (BD™ Mitoscreen Kit, BD Biosciences; San Diego, Calif.). DNA fragmentation was quantified flow-cytometrically, using a TUNEL (terminal deoxynucleotide transferase dUTP nick end-labeling) assay (APO-BRDU™; Phoenix Flow Systems; San Diego, Calif.) and a dual-color assay for annexin V binding and 7-AAD exclusion (Annexin V-PE 7-AAD Apoptosis Detection Kit I™; BD Biosciences Pharmingen, San Jose, Calif.). The apoptotic volume decrease of cells was assessed by the reduction of their diameter (VI-CELL™; Beckman Coulter; Fullerton, Calif.).
First, whether both drugs elicit apoptosis in H9-HIV cells was determined. The cells were exposed to CPX or DEF, and annexin-V binding, cell diameter and cell survival were assayed in a time-dependent manner. By 24 hr, drug treatment elicited a ˜5-fold increase in the percentage of the 7-AAD-negative cell population capable of binding annexin-V to exposed membrane phospholipid phosphatidylserine, with little further increase at 48 hr (FIG. 8A). Both drugs elicited a decrease in mean cell diameter of ˜15% within 24 hr and ˜30% within 48 hr, indicating volume constriction characteristic of apoptosis but not necrosis (FIG. 8B). Concomitantly, cell survival decreased ˜2 fold at 24 hr and ˜5 fold at 48 hr (FIG. 8C).

The subject of assay [2] is H9-HIV cells. Description: Intracellular cellular and retroviral proteins by flow cytometry in H9-HIV cells. The protocol:
Intracellular antigens were determined, as geometric means of fluorescence, by flow cytometric analysis using a BD FACSCalibur™ and its BD FACStation System™ (Becton Dickinson; San Jose, Calif.). Intracellular antigens were stained according to the instrument producer's instructions.
CD4+ T cells isolated from infected individuals have increased Bcl-2 levels compared to uninfected lymphocytes and some reports implicate HIV-1 Tat in preventing apoptosis in persistently infected cells by inducing the transcription of Bcl-2. Since CPX blocks HIV-1 gene expression, Bcl-2 expression in H9 and H9-HIV cells was determined. […] Retroviral proteins can also control apoptosis. Therefore, assays were carried out to measure the response of individual retroviral proteins in H9-HIV (FIG. 10C) to the shut-down of the HIV-1 promoter by CPX. […] Vpr induces apoptosis via caspase-3 activation.
(Flow cytometry measures light scatter and fluorescence of single cells or particles in a stream.)

The target in assay [3] is T1, deoxyhypusine hydroxylase (Homo sapiens, UniProt Q9BU89).
T1 construct: endogenous in cells; host or cells: H9-HIV cells (H9 infected with HIV-1 HTLV-IIIB)
T1 sequence (Q9BU89 1-302): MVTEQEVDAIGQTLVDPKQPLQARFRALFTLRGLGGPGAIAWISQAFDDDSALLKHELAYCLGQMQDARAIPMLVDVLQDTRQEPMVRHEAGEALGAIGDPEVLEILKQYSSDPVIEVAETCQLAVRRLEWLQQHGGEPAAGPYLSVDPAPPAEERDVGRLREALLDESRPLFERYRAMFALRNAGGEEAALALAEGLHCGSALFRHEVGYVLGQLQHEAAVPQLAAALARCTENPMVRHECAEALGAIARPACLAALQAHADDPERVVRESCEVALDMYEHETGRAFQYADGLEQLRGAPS
Description: Deoxyhypusine hydroxylase activity in H9-HIV cells (peptide-bound hypusine / deoxyhypusine). The source says:
FIGS. 11A-D are a set of diagrams showing drug-activated apoptosis and iron chelation. A. Covalent structures of the medicinal chelators DFOX and DEF, and of the antifungal agent CPX and its chelation homolog Agent P2. DFOX, CPX, and Agent P2 interact with iron via a hydroxamate moiety, similar to the chelating domain of DEF. Arrows indicate the uniform bidentate mode of metal binding. DFOX contains three of these moieties and is a hexadentate chelator. B. Effect of drugs and Agent P2 on the expression of iron-dependant (IRE; hatched bars) and retrovirally-encoded (HIV; filled bars) gene expression in transfected 293T cells. Results are expressed relative to untreated controls. C. […] Triangles, peptide-bound hypusine; squares, peptide-bound deoxyhypusine. D. Induction of apoptosis by CPX and by DFOX. H9-HIV cells were treated for 24 hr and then assayed by flow cytometry using TUNEL. Results are expressed as percentage of cells that are TUNEL-positive (±SEM).

Regarding `Cc1c(O)c(=O)ccn1C` [DEF, 3-hydroxy-1,2-dimethylpyridin-4(1H)-one], the “decrease in cell survival” value is given as roughly 2 fold in the assay on H9-HIV cells [1] (at 24 hr) and roughly 5 fold with H9-HIV cells [1] (at 48 hr). Besides, the “increase in annexin-V binding, 7-AAD-negative cell population” value with H9-HIV cells [1] is listed as roughly 5 fold. Also, the “decrease in mean cell diameter” value in the assay with H9-HIV cells [1] (within 24 hr) is on record as roughly 15%; with H9-HIV cells [1] (within 48 hr), roughly 30%. The “response of retroviral proteins Rev, p24, Tat, Vpr” value in the assay on H9-HIV cells [2] (DEF) was “sparing Rev, decreasing p24 and Tat, and increasing Vpr”.
On to `Cc1ccn(O)c(=O)c1` [Agent P2, 1-hydroxy-4-methylpyridin-2[1H]-one], for which the “inhibition of deoxyhypusine hydroxylase activity / eIF5A hydroxylation” value in assay [3] was “failed to inhibit eIF5A hydroxylation in vivo or in vitro”.
For the compound `Cc1cc(C2CCCCC2)n(O)c(=O)c1` [CPX, 6-cyclohexyl-1-hydroxy-4-methylpyridin-2[1H]-one], the “decrease in cell survival” value in the assay with H9-HIV cells [1] (at 24 hr) is listed as roughly 2 fold. For the same compound, in the assay on H9-HIV cells [1] (at 48 hr), the “decrease in cell survival” value is reported as roughly 5 fold. The “increase in annexin-V binding, 7-AAD-negative cell population” value in the assay on H9-HIV cells [1] is listed as roughly 5 fold. Besides, the “decrease in mean cell diameter” value in the assay on H9-HIV cells [1] (within 24 hr) was roughly 15%. Further, the “decrease in mean cell diameter” value with H9-HIV cells [1] (within 48 hr) is on record as roughly 30%. Besides, in the assay on H9-HIV cells [2] (30 μM CPX, 24 and 48 hr), the “active caspase-3” value is listed as “the increase in Vpr paralleled that of active caspase-3”, the “intracellular Rev” value was “only marginally affected” and the “intracellular Tat” value is on record as “similarly reduced”. Further, in the assay on H9-HIV cells [2] (30 μM CPX, within 24 hr), the “increase of Vpr level” value is recorded as roughly 15% and the “reduction of intracellular p24” value was 30%. In addition, in the assay on H9-HIV cells [2] (30 μM CPX, within 48 hr), the “increase of Vpr level” value is recorded as roughly 70% and the “reduction of intracellular p24” value was determined as 70%. In addition, the “dose-dependent change in Bcl-2 content” value with H9-HIV cells [2] (24 hr, H9 and H9-HIV) is listed as “neither of these measures achieved statistical significance”. Moreover, in the assay on H9-HIV cells [2] (CPX 24 hr, irrespective of infection (H9 and H9-HIV)), the “cells positive for Bcl-2” value is reported as roughly 35%. In assay [3], the “inhibition of deoxyhypusine hydroxylase activity / eIF5A hydroxylation” value was “Dose-dependent inhibition of deoxyhypusine hydroxylase activity”.
